Results: US20240075036A1, “THERAPEUTIC COMBINATIONS INCLUDING INHIBITORS OF THE P2X4 RECEPTOR FOR TREATING AND PREVENTING PROLIFERATIVE DISORDERS” (CHEMOTHERAPEUTISCHES FORSCHUNGSINSTITUT GEORG-SPEYER-HAUS, priority 2021, published 2024)

Assays:
[1] = tested on: S6 ribosomal protein phosphorylation (mTOR signaling); assay: Immunoblot analysis of survival pathways / S6 phosphorylation in AOM/DSS tumor organoids; type: cell-based, mice; settings: ATP (100 μM) in presence of inhibitor; AOM/DSS tumor organoids
Procedure: Data are mean±SD, n=7. *p<0.05 by two-tailed Student's t-test. c, Immunoblot analysis of Lgr5EGFP-DTR(−) tumor organoids treated with ATP (100 μM), 2MeS ADP (100 μM) and adenosine (100 μM) for 30 min. […] Data are mean±SD, n=4 replicates. […] Data are mean±SD, n=3 replicates. One representative of three experiment performed is shown. n.s. p>0,05, *p<0.05***, p<0.001, ****p<0.0001 by 1-way ANOVA with Bonferroni's multiple comparison test. 1, Immunoblot analysis of doxycycline inducible P2x4 knockdown APTAK colon tumor organoids treated with 5-FU (20 μM). Organoids were cultured in medium−/+doxycycline prior to the experiment. […] Organoids were cultured in medium−/+doxycycline prior to the experiment. […] Data are mean±SD, n=3.
In vitro Lgr5+ cells ablation experiments, organoids were treated with 20 ng/ml DT (Millipore, #322326) in the culture medium. For human LGR5+ cells ablation, we treated LGR5-iCT organoids with 500 nM BB homodimerizer. Other treatments were performed as described in each figure legends.

APTAK tumor organoids = assay: APTAK tumor organoids: S6 phosphorylation and organoid survival; type: cell-based, mice; settings: P2x4 inhibitor in combination with 5-FU compared to each treatment alone
Procedure: Organoids were cultured in medium−/+doxycycline prior to the experiment. […] Organoids were cultured in medium−/+doxycycline prior to the experiment.
Colon tumor organoids were cultured as previously described (27). AOM/DSS induced colon tumors were harvested by opening the colon longitudinally and dissociated enzymatically for 30-40 min in digestion media containing 1 mg/ml collagenase I (Sigma-Aldrich), 0.5 mg/ml Dispase (Roche), 50 μg/ml DNase (Sigma-Aldrich) in RPMI medium containing 2% FCS. Supernatant was washed and filtered through a 70 μM cell strainer. Cells were then embedded in Matrigel (Corning, #356231) and cultured in Advanced Dulbecco's modified Eagle's medium/F12 (Invitrogen, #12634-028) supplemented with Glutamax (Invitrogen, #35050038), Hepes (Invitrogen, #15630056), Pen/Strep (Invitrogen, #15140122), N2 supplement (Invitrogen, #17502048), B27supplement (Invitrogen, #17504044) and n-Acetylcysteine (Sigma-Aldrich, #A91165). EGF (Invitrogen, #PMG8045), RspoI and noggin were added as niche factor.

[2] = tested on: AOM/DSSATKN tumor organoids; settings: P2x4 inhibitor in combination with 5-FU (20 μM) compared to each treatment alone; AOM/DSS tumor organoids
Source text: Percentage of reseeding capacity compared to vehicle treated organoids is indicated. Data are mean±SD, n=4 replicates. […] Percentage of reseeding capacity compared to vehicle treated organoids is indicated.

[3] = tested on: patient-derived tumor organoids (PDTO) from pancreatic ductal adenocarcinoma; settings: P2X4 inhibitor 5-BDBD combined with 5-FU
rat P2X4 receptor = target: T1, rat P2X4 receptor (Rattus norvegicus, UniProt P51577); settings: cited from earlier work
T1 sequence (P51577 1-388): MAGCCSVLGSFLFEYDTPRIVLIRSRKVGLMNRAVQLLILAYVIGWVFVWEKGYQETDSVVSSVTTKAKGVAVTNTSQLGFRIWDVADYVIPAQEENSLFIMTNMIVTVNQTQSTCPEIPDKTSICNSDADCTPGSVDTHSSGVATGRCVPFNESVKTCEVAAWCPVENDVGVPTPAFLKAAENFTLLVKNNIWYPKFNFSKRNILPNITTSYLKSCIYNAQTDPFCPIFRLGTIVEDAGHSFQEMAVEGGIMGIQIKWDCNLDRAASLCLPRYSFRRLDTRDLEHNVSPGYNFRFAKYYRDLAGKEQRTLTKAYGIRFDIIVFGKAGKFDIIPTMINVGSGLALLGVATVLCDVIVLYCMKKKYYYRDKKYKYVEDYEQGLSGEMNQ

PC3 and C4-2B4 cells = settings: selective P2XR4 antagonists; cited from earlier work
[4] = tested on: ectopic patient-derived colon tumor; settings: irinotecan and AZD2014 combination; cited from earlier work
SW480 cells = settings: irinotecan and AZD2014 combination; orthotopic implantation; cited from earlier work
[5] = tested on: advanced colorectal cancer; settings: treatment of advanced colorectal cancer; cited from earlier work
[6] = tested on: refractory metastatic colorectal cancer / refractory solid tumors; settings: cited from earlier work
[7] = 24 patients with refractory metastatic colorectal cancer, everolimus combination cohorts

## O=C1CN=C(c2cccc(Br)c2)c2oc3ccccc3c2N1 [5-BDBD, 5-(3-bromophenyl)-1,3-dihydro-2H-benzofuro[3,2-e]-1,4-diazepin-2-one]
[1]
  ATP induced phosphorylation of S6: reduced phosphorylation of S6 by ATP
APTAK tumor organoids
  organoid survival: decreased organoid survival
[2]
  organoid survival: decreased organoid survival
[3]
  tumor organoid survival: sensitizes tumor organoids to 5-FU administration and leads to reduced tumor organoid survival
Rat P2X4 receptor
  antagonist action on ATP-induced currents: specific P2X4R antagonist
PC3 and C4-2B4 cells
  growth, mobility and apoptosis of PCa cells: impaired the growth and mobility of PCa cells but not apoptosis

## CNC(=O)c1cccc(-c2ccc3c(N4CCOC[C@@H]4C)nc(N4CCOC[C@@H]4C)nc3n2)c1 [AZD2014]
[4]
  tumor growth: drastically reduced ectopic patient-derived colon tumor growth
SW480 cells
  liver and lung metastases: totally inhibited liver and lung metastases

## CO[C@H]1C[C@@H]2CC[C@@H](C)[C@@](O)(O2)C(=O)C(=O)N2CCCC[C@H]2C(=O)O[C@H]([C@H](C)C[C@@H]2CC[C@@H](OCCO)[C@H](OC)C2)CC(=O)[C@H](C)/C=C(\C)[C@@H](O)[C@@H](OC)C(=O)[C@H](C)C[C@H](C)/C=C/C=C/C=C/1C [everolimus]
[5]
  clinical activity: limited clinical activity
[6]; [7]
  median time on treatment: 2.7 months
  patients remaining on treatment with stable disease for at least 3 months: 45%
[6]; everolimus in addition to 5-FU/LV and mFOLFOX6
  safety and tolerability: appears safe and tolerable
